According to patent US7863313B2, “Methods for the treatment of inflammatory diseases” (Cortical PTY LTD, priority 2003, dated 2011):

Columns and labels:
[1] = test system: LPS-IFN—induced nitrite production; experiment: MIF-dependent nitrite production in peritoneal macrophages (Greiss assay); type: cell-based, mouse; settings: Mus musculus, Peritoneal macrophage, LPS 10 ng/ml + interferon-γ 10 units/ml, 24 h, read-out: % Inhibition of nitrite (± SD); for inhibition at 100 µM: compound 100 μM; for inhibition at 33 µM: compound 33 μM
Method: MIF is able to induce or facilitate the expression and release of a wide variety of pro-inflammatory and/or destructive molecules, including the release of macrophage nitric oxide (NO) ^(20). A compound with the ability to inhibit the cytokine or biological function of MIF might be expected to inhibit the activation of NO production by macrophages.
C57BL6/J male mice were injected intraperitoneally with 2 ml of thioglycolate. Three days later peritoneal macrophages were collected by lavaging the peritoneum with 3 ml of cold Hank's buffered saline solution. Cells from several mice were pooled, washed and re-suspended in DMEM supplemented with 5% FCS. Cells were plated in 96 well plastic tissue culture plates at 1×10^5 cells/well. Cells were treated in triplicate wells with compound or vehicle for 1 hour in a 5% CO2 incubator at 37° C. Cells were then treated with LPS (10 ng/ml) and recombinant human interferon-γ (10 units/ml) and incubated for 24 hours. After 24 hours, 50 μl of supernatant from each well was carefully removed and transferred to ELISA plates. The production of NO was measured by analysing the concentration of nitrite in culture supernatants, as measured by the Greiss assay ^(21). The results were calculated as the percentage inhibition of nitrite concentration in compound-treated cell culture supernatants, compared to that of vehicle-treated cells.

[2] = test system: MIF-induced proliferation of mouse NIH 3T3 fibroblasts; experiment: MIF-induced proliferation in mouse fibroblasts (3H-thymidine incorporation); type: cell-based; settings: for Mean cpm (3H-thymidine incorporation): Compound (10×^10−6M) + MIF 50 ng/ml, nil 1087, MIF + vehicle 1452
Method: The activity of compounds was studied in a bioassay utilising MIF-induced proliferation of mouse NIH 3T3 fibroblasts. […] NIH 3T3 cells were propagated in DMEM/10% foetal calf serum (FCS). Prior to experimentation, cells were seeded at 10^4 cells/well in 96-well plates in DMEM/10% FCS for 18 hours. The media was then replaced with DMEM/0.1% FCS and the cells incubated for a further 18 hr. At time point −1 hr, culture medium was replaced with DMEM/0.1% FCS and cells were treated with a compound of the invention at a final concentration of 10 μM or vehicle. At time point zero, cells were treated with MIF at a final concentration of 50 ng/ml. At time point 6 hr the cells were pulsed with 1 µCi/well of ^3H-thymidine. At time point 24 hours, cells were harvested using a semi-automated cell harvester. The radioactivity incorporated into DNA was determined by liquid scintillation counting, with results expressed as ^3H-thymidine incorporation (cpm). Statistical significance was analysed using the Mann-Whitney test.

[3] = test system: LPS-induced serum IL-1, IL-6, and TNF; experiment: Mouse endotoxic shock model (serum cytokines by ELISA); type: in vivo; settings: for effect on serum IL-1: 5 mg/kg; for IL-1 (pg/ml), serum: 5 mg/kg i.p. 24 h and 1 h before LPS 5 mg/kg, saline 175 ± 43, LPS plus vehicle 428 ± 168; for IL-1 (pg/ml), serum / IL-6 (ng/ml), serum / TNF (pg/ml), serum: 1.5 h after LPS; for effect on serum IL-6 / effect on serum TNF: 15 mg/kg; for IL-6 (ng/ml), serum / TNF (pg/ml), serum: 15 mg/kg i.p. 24 h and 1 h before LPS 5 mg/kg; for IL-6 (ng/ml), serum: saline 4 ± 4, LPS plus vehicle 118 ± 30; for TNF (pg/ml), serum: saline 189 ± 69, LPS plus vehicle 2022 ± 1245
Text: The activity of compounds was studied in the murine endotoxic shock model. In this model, features of shock, characterised by increased serum levels of cytokines such as IL-1, tumor necrosis factor (TNF), and interleukin 6 (IL-6), are induced by the injection of bacterial lipoloysaccharide (LPS). The in vivo production of IL-1, IL-6, and TNF in response to endotoxin has been previously shown to be dependent on MIF ^(23).
Groups of four mice were used in each experiment. Endotoxaemia was induced by intra-peritoneal injection of lipopolysaccharide (LPS) (5 mg/kg) in 300 μl saline. Mice injected with saline alone were used as a control group. Treatments were administered by intra-peritoneal injection at intervals 24 hours and 1 hour before intra-peritoneal LPS injection. Mice were treated with saline, compounds dissolved in DMSO/saline vehicle at a dose of 5-15 mg/kg body weight, or vehicle (containing matching concentrations of DMSO).
After 1.5 hours mice were humanely killed by CO2 inhalation then neck dislocation. Serum was obtained from blood obtained by cardiac puncture prior to death and measured for the concentration of cytokines including IL-1, TNF, and/or IL-6, by ELISA. Statistical significance was analysed using the Mann-Whitney test.

Row | SMILES | inhibition at 100 µM [1] | Mean cpm (3H-thymidine incorporation) [2] | further results
1 | COc1cc(C2OCCS2)ccc1O (stereo not drawn) [Compound 29, 2-Methoxy-4-(1,3-oxathiolan-2-yl)phenol] | 9 ± 1% | 1157 cpm | 
2 | COc1cc(C2OCCS2)cc(OC)c1OC (stereo not drawn) [Compound 28, 2-(3,4,5-Trimethoxyphenyl)-1,3-oxathiolane] |  | 1219 cpm | 
3 | CCC1(c2ccc(OC)cc2)OCCO1 [Compound 16, 2-Ethyl-2-(4-methoxyphenyl)-1,3-dioxolane] |  | 1335 cpm | 
4 | OCCCCC1(c2ccc(F)cc2)OCCO1 [Compound 10, 4-[2-(4-Fluorophenyl)-1,3-dioxolan-2-yl]butan-1-ol] |  | 1187 cpm | 
5 | CCCCC1(c2ccc(Br)cc2)OCCO1 [Compound 11, 2-(4′-Bromophenyl)-2-butyl-1,3-dioxolane] |  | 1245 cpm | inhibition at 33 µM [1]: 19 ± 1%
6 | CCCCC1(c2ccc(Br)cc2)OCCC(CCC)S1 (stereo not drawn) [Compound 38, 2-(4-bromophenyl)-2-butyl-4-propyl-1,3-oxathiane] | 35% |  | 
7 | COc1ccc(-c2ccc(OC(F)(F)F)cc2)c(OC)n1 [Compound 14, 2,6-Dimethoxy-3-[4-(trifluoromethoxy)phenyl]pyridine] | 27 ± 3% | 1420 cpm | 
8 | CC1CSC(c2ccc(C#N)cc2)O1 (stereo not drawn) [Compound 32, 4-(5-Methyl-1,3-oxathiolan-2-yl)benzonitrile] | 14 ± 4% | 1196 cpm | 
9 | CC1(c2ccc([N+](=O)[O-])cc2)OCCCO1 [Compound 26, 2-(4-Nitrophenyl)-2-methyl-1,3-dioxane] |  | 1141 cpm | 
10 | CC1(c2ccc(Cl)cc2)SCCS1 [Compound 24, 2-(4-Chlorophenyl)-2-methyl-1,3-dithiolane] |  | 1318 cpm | inhibition at 33 µM [1]: 21 ± 2%
11 | CCCCC1(c2ccc(Br)cc2)OCCC(CCC)S1 (stereo not drawn) [Compound 39, 2-(4-bromophenyl)-2-butyl-4-propyl-1,3-oxathiane] |  | 956.1 cpm | 
12 | CCC1(c2ccc(Br)cc2)OCCS1 (stereo not drawn) [Compound 31, 2-(4-Bromophenyl)-2-ethyl-1,3-oxathiolane] | 35 ± 3% |  | 
13 | COC(=O)CCCC1(c2ccc(F)cc2)OCCO1 [Compound 9, Methyl 4-[2-(4-fluorophenyl)-1,3-dioxolan-2-yl]butanoate] |  | 1071 cpm | inhibition at 1 µM ([1]; compound 1 μM): 16 ± 1%
14 | N#Cc1ccc(C2OCCS2)cc1 (stereo not drawn) [Compound 30, 4-(1,3-Oxathiolan-2-yl)benzonitrile] | 31 ± 2% |  | 
15 | CCCCCCC1(c2ccc(C)cc2)OCCO1 [Compound 19, 2-Hexyl-2-(4-methylphenyl)-1,3-dioxolane] |  | 1209 cpm | 
16 | COc1ccc(C2OCCS2)cc1 (stereo not drawn) [Compound 27, 2-(4-Methoxyphenyl)-1,3-oxathiolane] | 24 ± 1% |  | 
17 | CCC1(c2ccc(Cl)cc2)OCC(C)O1 (stereo not drawn) [Compound 42, 2-(4-Chlorophenyl)-2-ethyl-4-methyl-1,3-dioxolane] |  | 1168 cpm | 
18 | Cc1ccc(C2=NCCO2)cc1 [Compound 45, 2-(4-Methylphenyl)-4,5-dihydro-1,3-oxazole] | 7 ± 1% |  | 

Row | SMILES | inhibition at 100 µM [1] | Mean cpm (3H-thymidine incorporation) [2] | further results
19 | COc1ccc(-c2cnn(CCC(C)C)c2)cc1 [Compound 12, 4-(4-Methoxyphenyl)-1-(3-methylbutyl)-1H-pyrazole] | 78 ± 9% |  | effect on serum IL-1 [3]: inhibitory effect; IL-1 (pg/ml), serum [3]: 286 ± 102 pg/mL; effect on serum IL-6 [3]: inhibitory effect; effect on serum TNF [3]: inhibitory effect; IL-6 (ng/ml), serum [3]: 80 ± 16 ng/mL; TNF (pg/ml), serum [3]: 1636 ± 468 pg/mL
20 | CCC1(CC)COC(c2ccc(F)c(C#N)c2)OC1 [Compound 43, 5-(5,5-Diethyl-1,3-dioxan-2-yl)-2-fluorobenzenecarbonitrile] | 34 ± 1% | 1106 cpm | 
21 | Cc1ccc(C2(C)SCCS2)cc1 [Compound 18, 2-Methyl-2-(4-methylphenyl)-1,3-dithiolane] | 40 ± 1% |  | significant inhibition of MIF-induced proliferation ([2]; 10 μM, P<0.05, FIG. 9): significant inhibition
22 | CCCCCCC1(c2cc(OC)cc(OC)c2)OCCO1 [Compound 41, 2-(3,5-Dimethoxyphenyl)-2-hexyl-1,3-dioxolane] | 26 ± 1% |  | 
23 | Clc1ccc(C2=NCCO2)cc1 [Compound 44, 2-(4-Chlorophenyl)-4,5-dihydro-1,3-oxazole] |  | 1294 cpm | 
24 | Cc1ccc(C2(C)OCCCO2)cc1 [Compound 22, 2-Methyl-2-(4-methylphenyl)-1,3-dioxane] |  | 1310 cpm | 
25 | N#Cc1ccc(C2OCCO2)cc1 [Compound 40, 4-(1,3-Dioxolan-2-yl)benzenecarbonitrile] | 7 ± 2% | 1143 cpm | 
26 | CC1(c2ccc([N+](=O)[O-])cc2)OCCO1 [Compound 25, 2-(4-Nitrophenyl)-2-methyl-1,3-dioxolane] |  | 1117 cpm | inhibition at 33 µM [1]: 7 ± 1%
27 | c1csc(-c2ccc(C3NCCS3)cc2)c1 (stereo not drawn) [Compound 15, 2-[4-(2-Thienyl)phenyl]-1,3-thiazolane] | 12 ± 1% | 955.6 cpm | 
28 | CC1(c2ccc(Cl)cc2)OCCCO1 [Compound 20, 2-(4-Chlorophenyl)-2-methyl-1,3-dioxane] |  | 1214 cpm | 
29 | c1csc(-c2ccc(C3OCCS3)cc2)c1 (stereo not drawn) [Compound 33, 2-(4-Thien-2-ylphenyl)-1,3-oxathiolane] | 47 ± 4% |  | effect on serum IL-1 [3]: inhibitory effect; IL-1 (pg/ml), serum [3]: 360 ± 72 pg/mL; effect on serum IL-6 [3]: inhibitory effect; effect on serum TNF [3]: inhibitory effect; IL-6 (ng/ml), serum [3]: 95 ± 14 ng/mL; TNF (pg/ml), serum [3]: 1152 ± 317 pg/mL
30 | COc1ccc(-c2ccc(C(F)(F)F)cc2)c(OC)n1 [Compound 37, 2,6-Dimethoxy-3-[4-(trifluoromethyl)phenyl]pyridine] | 24 ± 1% | 1045 cpm | 
31 | Cc1ccc(C2(C)OCCO2)cc1 [Compound 23, 2-Methyl-2-(4-methylphenyl)-1,3-dioxolane] |  | 1344 cpm | 
32 | CC1(c2ccc(Cl)cc2)OCCO1 [Compound 21, 2-(4-Chlorophenyl)-2-methyl-1,3-dioxolane] |  | 1220 cpm | 
33 | COc1ccc(-c2ccc(OC(F)(F)F)cc2)cc1 [Compound 36, 4-Methoxy-4′-(trifluoromethoxy)-1,1′-biphenyl] | 57 ± 1% | 1033 cpm | 
34 | CC1CSC(c2ccc(F)c(C#N)c2)O1 (stereo not drawn) [Compound 35, 2-Fluoro-5-(5-methyl-1,3-oxathiolan-2-yl)benzenecarbonitrile] | 18 ± 2% |  | 
35 | CCCCCCCCC1(c2ccc(O)cc2)OC(C)CS1 (stereo not drawn) [Compound 34, 4-(5-Methyl-2-octyl-1,3-oxathiolan-2-yl)phenol] | 24 ± 1% |  | 
